Where a name gives a salt, the structure may show the parent alone.
Tested on: patients with COVID-19 pneumonia
Test: Randomized, double-blind, placebo-controlled Phase 2a study of opaganib in COVID-19 pneumonia
Format: in vivo, human
Description: This was a phase 2a, proof of concept, multi-center randomized double-blind, parallel arm, placebo-controlled study. After informed consent was obtained, patients entered a screening phase for no more than 3 days, to determine eligibility. […] Treatment assignments remained blinded to the patient, investigator and hospital staff, as well as the sponsor. As there was no consensus for a definitive treatment specifically targeting the SARS-CoV-2 virus causing COVID-19 (Wilson, 2020), standard of care referred to regional, institutional or physician directed therapies, that were implemented during the COVID-19 pandemic.
Study drug was to be administered every day for 14 days (Day 1 to Day 14), unless the patient had been discharged from the hospital without requiring supplemental oxygen, in which case study drug would only be administered to Day 10.
All participants were followed up for 4 weeks after their last dose of study drug, which may have occurred at the end of the 2-week double-blind treatment phase or after premature study drug discontinuation, based upon patient or physician determination. The maximum duration of study participation was up to 45 days (including up to 3 days screening; 2 weeks DB treatment phase and 4-weeks off-study drug follow-up)
• 1. Adult male or female≥18 to ≤80 years of age • 2. Proven COVID-19 infection per RT-PCR assay of a pharyngeal sample (nasopharyngeal or oropharyngeal) AND pneumonia defined as radiographic opacities on chest X-ray • 3. The patient requires supplemental oxygen at baseline • 4. The patient, guardian or legal representative has signed a written IRB-approved informed consent Exclusion: • 1. Any co-morbidity that may add risk to the treatment in the judgement of the investigator. • 2. Requiring intubation and mechanical ventilation • 3. Oxygen saturation≥95% on room air • 4. Any preexisting respiratory condition that requires intermittent or continuous ambulatory oxygen prior to hospitalization • 5. Patient is, in the investigator's clinical judgement, unlikely to survive >72 hours • 6. Pregnant (positive serum test within 3 days prior to randomization) or nursing women • 7. Unwillingness or inability to comply with procedures required in this protocol. • 8. Corrected QT (QTc) interval on electrocardiogram (ECG) >470 ms for females or >450 ms for males, calculated using Friedericia's formula (QTcF) • 9. AST (SGOT) or ALT (SGPT) >2.5× upper limit of normal (ULN) • 10. Bilirubin>1.5×ULN (except where bilirubin increase is due to Gilbert's Syndrome) • 11. Serum creatinine>2.0×ULN • 12. Absolute neutrophil count<1000 cells/mm^3 • 13. Platelet count<75,000/mm^3 • 14. Hemoglobin<8.0 g/dL • 15. Currently taking medications that are sensitive CYP3A4, CYP2C9 or CYP2C19 substrates and have a narrow therapeutic index • 16. Currently taking medications that are strong inducers or inhibitors of CYP2D6 and CYP3A4 • 17. Currently taking warfarin, apixaban, argatroban or rivaroxaban • 18. Current drug or alcohol abuse • 19. Currently participating in a clinical study assessing pharmacological treatments, including anti-viral studies Number of Subjects: […]

O=C(NCc1ccncc1)C12CC3CC(C1)CC(c1ccc(Cl)cc1)(C3)C2 [opaganib, 3-(4-chlorophenyl)-adamantane-1-carboxylic acid (pyridin-4-ylmethyl) amide, hydrochloride salt]
patients with serious adverse events (SAEs) vs. placebo arm (500 mg Q12 hours up to 14 days): fewer patients | safety (500 mg Q12 hours up to 14 days plus standard of care, vs. placebo): safe | reduction from baseline of the medial total oxygen requirement (AUC) over 14 days (control arm 46.7%): 68.0% | proportion of patients discharged by Day 14 (control arm 55.6%): 73.7% | proportion of patients reaching room air and no longer requiring oxygen support by Day 14 (mITT sensitivity, control arm 22.2%): 52.6% | proportion of patients with 50% reduction in supplemental oxygen by day 14 (mITT sensitivity, control arm 66.7%): 89.5% | patients with adverse events such that study drug was terminated (opaganib arm, one patient in placebo arm): Two

Reference: patent US11471448B2 (priority 2020, dated 2022)
